Experiments:
[1] = Diet-induced obesity model, high-fat diet, 28 days; type: in vivo, C57BL/6J mice; details: 75 mg/kg/day oral gavage, vs high-fat vehicle, p<0.05, FIG. 6A
Method: The effect of the present compounds and methods on fat regulation, e.g., fat uptake and storage, etc., and on regulation of body weight was analyzed as follows. C57Bl/6J mice fed a high-fat diet develop severe obesity, hyperglycemia, and hyperinsulinemia, and are a model of diet-induced obesity, Type 2 diabetes, and impaired glucose tolerance. Forty male C57BL/6J mice obtained from The Jackson Laboratory (Bar Harbor Me.) were divided into the following experimental groups: Group 1: vehicle control animals fed standard mouse chow (n=10); Group 2: vehicle control animals fed high-fat mouse chow (45% fat from Research Diets) (n=10); Group 3: animals fed high-fat mouse chow and administered 75 mg/kg/day compound E by oral gavage (n=10); Group 4: animals fed high-fat mouse chow and administered 75 mg/kg/day compound A by oral gavage (n=10). The feeding regimen was continued for 28 days with weekly measurement of body weight. Animals were then sacrificed and their organs and fat pads were harvested and weighed.

GluT-1 [2] = test: GluT-1 protein levels in H9c2 cells, Western blot; type: cell-based, rat; details: H9c2 cells, 5, 10 and 20 μM, 16 hours; FIG. 9A
Method: (§1) As the compounds and methods of the invention regulate fat metabolism, which is tightly coordinated with glucose regulation, the effect of compounds and methods on glucose uptake and metabolism was analyzed. Human SSC-25 (squamous cell carcinoma) or rat H9c2 (ventricular cardiomyocyte) cells were grown to confluence in 100 mm culture dishes at 37° C., 10% CO2 in DMEM with 10% fetal calf serum. Cells were then washed twice with PBS and incubated with vehicle control, compound D (10 and 25 μM), or compound C (5, 10, and 20 μM) for 16 hours. Plates were placed on ice, culture supernatant was removed, and lysis buffer-1 (LB-1: 10 mM Tris pH 7.4, 1 mM EDTA, 150 mM sodium chloride, 0.5% IGEPAL) was added. Cells were harvested by scraping, incubated for 15 minutes on ice, and then centrifuged at 3,000×g for 5 minutes at 4° C. The supernatant, which represents the cytosolic fraction, was collected and cytosolic proteins were separated under reducing conditions using SDS-polyacrylamide gel electrophoresis (SDS-PAGE) with equal amounts of protein loaded per lane.
(§2) SDS-PAGE was conducted at 150 V for 2 hours, after which the proteins were transferred to a PVDF membrane at 400 mA for 1.5 hours at 4° C. […]

HIF-1α [3] = test: HIF-1α in nuclear fractions, TRANSAM HIF-1 ELISA; type: cell-based, human; details: 293A and Hep3B cells, vs vehicle; FIG. 8B
Excerpt: (§3) Compounds of the present invention for use in the present methods stabilize HIFα, inhibit HIF hydroxylase activity and/or HIFα hydroxylation, etc. Thus, compounds can be identified, e.g., by their ability to stabilize HIFα. Stabilization of HIFα using compounds and methods of the present invention was examined as follows. Human cells derived from adenovirus-transformed fetal kidney epithelium (293A), cervical epithelial adenocarcinoma (HeLa), hepatocellular carcinoma (Hep3B), squamous carcinoma (SSC-25), and lung fibroblast (HLF) tissues (see, e.g., American Type Culture Collection, Manassas Va.; and Qbiogene, Carlsbad Calif.) were separately seeded into 100 mm culture dishes and grown at 37° C., 20% O2, 5% CO2 in media as follows: HeLa cells in Dulbecco's Modification of Eagle's Medium (DMEM), 2% fetal bovine serum (FBS); HLF cells in DMEM, 10% FBS; 293A cells in DMEM, 5% FBS; and Hep3B cells in Minimal Essential Medium (MEM), Earle's BSS (Mediatech Inc., Herndon Va.), 2 mM L-glutamine, 0.1 mM non-essential amino acids, 1 mM sodium pyruvate, 10% FBS. When cell layers reached confluence, the media was replaced with OPTI-MEM media (Invitrogen Life Technologies, Carlsbad Calif.) and cell layers were incubated for approximately 24 hours in 20% O2, 5% CO2 at 37° C. A compound of the invention (compound B, D, F, G, or H) or vehicle control (0.5 to 1% DMSO) was then added to existing medium, and incubation was continued overnight.
Alternatively, nuclear fractions were prepared using a nuclear extract kit (Active Motif, Carlsbad Calif.) and were analyzed for HIF-1α using a TRANSAM HIF-1 ELISA kit (Active Motif) according to the manufacturer's instructions.

DEC1/Stra13 = DEC1/Stra13 expression in tissues after 4 days of oral dosing; type: in vivo, mouse; details: adipose, kidney, liver and muscle; oral gavage once per day for 4 days, 4 h after final dose; FIG. 3B
Method: (§4) To further investigate the effect of the methods and compounds of the present invention on expression of adipogenic factors, twelve Swiss Webster male mice (30-32 g) obtained from Simonsen, Inc. were treated by oral gavage once per day for 4 days with 4 ml/kg volume of either 0.5% CMC (0 mg/kg/day), 25 mg/ml compound D in 0.5% CMC (100 mg/kg/day), or 7.5 mg/ml and 25 mg/ml of compound B in 0.5% CMC (30 and 100 mg/kg/day, respectively). Four hours after the final dose, animals were anesthetized, sacrificed, and approximately 150 mg of adipose, heart, kidney, liver, lung, and muscle were isolated and stored in RNALATER solution (Ambion) at −20° C. RNA isolation and gene expression analysis was performed as described in Example 3 above.

PPAR-γ = PPAR-γ expression in tissue after 4 days of oral dosing; type: in vivo, mouse; details: cardiac tissue; oral gavage once per day for 4 days; FIG. 3C
Method: as §4

HIF-1α [4] = test: HIFα stabilization in cells, nuclear fraction Western blot; type: cell-based, human; details: various cell types, overnight incubation; FIG. 8A
Excerpt: as §3, with “A compound of the invention (compound B, D, F, G, or H) or vehicle control (0.5 to 1% DMSO) was then added to existing medium, and incubation was continued overnight.” left out

GluT-1 [5] = test: GluT-1 protein levels in SCC-25 cells, Western blot; type: cell-based, human; details: 10 and 25 μM, 16 hours, FIG. 9A
Method: as §1, §2

COc1ccc2c(O)c(C(=O)NCC(=O)O)nc(Cl)c2c1 [compound E, [(1-Chloro-4-hydroxy-7-methoxy-isoquinoline-3-carbonyl)-amino]-acetic acid]
weight gain [1]: significantly less weight gain

O=C(O)CNC(=O)c1ncc2cc(Oc3ccccc3)ccc2c1O [compound C, [(4-Hydroxy-7-phenoxy-isoquinoline-3-carbonyl)-amino]-acetic acid]
protein levels of GluT-1 (GluT-1 [2]): increased protein levels of GluT-1

CC(C)Oc1ccc2nc(C(=O)NCC(=O)O)c(O)cc2c1 [compound F, [(3-Hydroxy-6-isopropoxy-quinoline-2-carbonyl)-amino]-acetic acid]
stabilization and accumulation of HIFα (HIF-1α [3]): stabilization and accumulation of HIFα

O=C(O)c1c[nH]c2c(ccc3cccnc32)c1=O [compound D, 4-Oxo-1,4-dihydro-[1,10]phenanthroline-3-carboxylic acid]
DEC1/Stra13 expression (DEC1/Stra13): increased DEC1/Stra13 expression
PPAR-γ expression (PPAR-γ): decreased PPAR-γ expression
HIFα stabilization (HIF-1α [4]): stabilized HIFα
protein levels of GluT-1 (GluT-1 [5]): increased protein levels of GluT-1

COC(=O)CNC(=O)c1nc(Cl)c2cc(OCc3ccccc3)ccc2c1O [compound H, [(7-Benzyloxy-1-chloro-4-hydroxy-isoquinoline-3-carbonyl)-amino]-acetic acid methyl ester]
stabilization and accumulation of HIFα (HIF-1α [3]): stabilization and accumulation of HIFα

O=C(O)CNC(=O)c1nc2cc(Cl)ccc2cc1O [compound A, [(7-Chloro-3-hydroxy-quinoline-2-carbonyl)-amino]-acetic acid]
weight gain [1]: significantly less weight gain

O=C(O)CNC(=O)c1ncccc1O [compound G, [(3-Hydroxy-pyridine-2-carbonyl)-amino]-acetic acid]
stabilization and accumulation of HIFα (HIF-1α [3]): stabilization and accumulation of HIFα

From patent publication US8202834B2, “Fat regulation” (FibroGen, Inc., priority 2002, dated 2012)
